Article PMC7006766, “Coumarins from Magydaris pastinacea as inhibitors of the tumour-associated carbonic anhydrases IX and XII: isolation, biological studies and in silico evaluation” (Journal of Enzyme Inhibition and Medicinal Chemistry, 2020)
Where two headings read alike, the source gives them in different places.

Tests used:
[1] = target: T1, hCA II (Homo sapiens, UniProt P00918); type: biochemical
T1 construct: made in house

[2] = target: T2, hCA IX (Homo sapiens, UniProt Q16790); type: biochemical; conditions: for Ki: stopped flow, 6 h preincubation, mean of three assays
T2 construct: made in house

[3] = target: T3, hCA XII (Homo sapiens, UniProt O43570); experiment: biochemical; conditions: stopped flow, 6 h preincubation, mean of three assays
[4] = target: T4, hCA I (Homo sapiens, UniProt P00915); type: biochemical
T4 construct: made in house

[5] = system: HeLa cells; experiment: MTT cytotoxic assay in cancer HeLa cells; type: cell-based; conditions: Homo sapiens, read-out: IC50 (concentration of compound that reduces the cell viability to 50%)
Experimental: Human carcinoma HeLa cell line was obtained from the American Type Culture Collection (ATCC, Rockville, MD). Cells were grown in Dulbecco’s modified Eagle’s medium (DMEM) with high glucose, supplemented with 10% foetal calf serum (FCS), penicillin (100 units/mL)–streptomycin (100 μg/mL), and 2 mM L-glutamine in a 5% CO2 incubator at 37 °C. Subcultures of the HeLa cells were grown in T-75 culture flasks and passaged with a trypsin-EDTA solution. Cell culture materials were purchased from Invitrogen (Milan, Italy).
The in vitro cytotoxic effect of coumarins 5, 9–12, 15 was evaluated in cancer HeLa cells by the MTT (3-(4,5-dimethylthiazol-2-yl)-2,5-diphenyltetrazolium bromide) reduction assay. Cancer cells were seeded in 96-well plates (density of 3 × 10^4 cells/mL) in 100 μL of medium and cultured for 48 h (80% of cell confluence). Cells were subsequently incubated for 48 h with various concentrations (0.1–100 μM, dissolved in DMSO) of coumarins in culture medium (treated cells). Treated cells were compared for viability to untreated cells (control cells) and vehicle-treated cells (incubated for 48 h with an equivalent volume of DMSO; the maximal final concentration was 1%). After the cell medium removing and washing, cells were subjected to the MTT test[35]. After incubation (3 h), colour development was measured at 570 nm with an Infinite 200 auto microplate reader (Infinite 200, Tecan, Austria); the absorbance is proportional to the number of viable cells. Two independent experiments were performed.

[6] = target: T3, hCA XII
[7] = system: 4T1 cells; conditions: encapsulated in nanoliposomes vs free compound; cited from earlier work
[8] = stopped flow, 6 h preincubation, mean of three assays, read-out: Ki hCA II
[9] = stopped flow, 6 h preincubation, mean of three assays, read-out: Ki hCA I

T3 sequence (O43570 25-354): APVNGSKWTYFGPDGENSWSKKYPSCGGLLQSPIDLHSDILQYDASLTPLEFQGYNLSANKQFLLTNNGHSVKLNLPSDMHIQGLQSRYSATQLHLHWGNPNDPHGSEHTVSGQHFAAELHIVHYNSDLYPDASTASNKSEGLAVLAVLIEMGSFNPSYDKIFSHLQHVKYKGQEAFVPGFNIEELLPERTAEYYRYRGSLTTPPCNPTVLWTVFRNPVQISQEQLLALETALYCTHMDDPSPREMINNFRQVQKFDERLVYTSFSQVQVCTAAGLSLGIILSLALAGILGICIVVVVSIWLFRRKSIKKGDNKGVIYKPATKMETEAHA
T4 sequence (P00915 whole entry): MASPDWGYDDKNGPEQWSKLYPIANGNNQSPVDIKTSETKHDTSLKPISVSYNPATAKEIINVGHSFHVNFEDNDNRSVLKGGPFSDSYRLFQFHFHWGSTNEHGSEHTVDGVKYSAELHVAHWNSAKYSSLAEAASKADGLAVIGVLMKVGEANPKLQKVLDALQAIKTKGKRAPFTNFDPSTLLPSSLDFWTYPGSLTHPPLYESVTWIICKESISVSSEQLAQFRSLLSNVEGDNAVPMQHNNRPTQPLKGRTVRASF

Row | Ki ratio XII/IX (selectivity index hCA IX over hCA XII) [2] | SMILES | Ki [1, 8] | Ki [2] | Ki [3] | Ki [4, 9] | IC50 ([5]; HeLa, 48 h) | Ki [1] | Ki [4] | IC50 ([5]; HeLa cells, MTT, measured at 48 h, normoxic) | Ki ratio IX/XII ([6]; selectivity for hCA XII) | Ki ratio I/XII ([6]; selectivity over off-target CA I/II) | change of antiproliferative effect against 4T1 cells when encapsulated in nanoliposomes [7]
1 |  | COc1c2ccoc2cc2oc(=O)ccc12 [Compound 1, begapten] | > 10000 nM | 1950 nM | 855 nM | > 10000 nM |  |  |  |  |  |  | 
2 |  | COc1c2occc2cc2ccc(=O)oc12 [Compound 2, xanthotoxin] | > 10000 nM | 195 nM | 876 nM | > 10000 nM |  |  |  |  |  |  | 
3 |  | COc1c2ccoc2c(OC)c2oc(=O)ccc12 [Compound 3, isopimpinellin] | > 10000 nM | 160 nM | 590 nM | > 10000 nM |  |  |  |  |  |  | 
4 |  | C/C(=C\COc1c2occc2cc2ccc(=O)oc12)CO [Compound 4, E-trichoclin] | > 10000 nM | 2340 nM | 550 nM | > 10000 nM |  |  |  |  |  |  | 
5 |  | COc1c2ccoc2c(OC/C=C(\C)CO)c2oc(=O)ccc12 [Compound 5, E-5-methoxy-trichoclin] | > 10000 nM | 1500 nM | 63.5 nM | > 10000 nM | > 100000 nM |  |  |  |  |  | 
6 |  | CC(C)=CCOc1c2occc2cc2ccc(=O)oc12 [Compound 6, imperatorin] | > 10000 nM | 221 nM | 833 nM | > 10000 nM |  |  |  |  |  |  | 
7 |  | COc1c2ccoc2c(OCC=C(C)C)c2oc(=O)ccc12 [Compound 7, phellopterin] | > 10000 nM | 202 nM | 787 nM | > 10000 nM |  |  |  |  |  |  | 
8 |  | CC1(C)O[C@@H]1COc1c2occc2cc2ccc(=O)oc12 [Compound 8, heraclenin] |  | 162 nM |  |  |  | > 10000 nM | > 10000 nM |  |  |  | 
9 |  | CC(C)(O)[C@H](O)COc1c2occc2cc2ccc(=O)oc12 [Compound 9, (-)-heraclenol] | > 10000 nM | 27.5 nM | 814 nM | > 10000 nM | > 100000 nM |  |  |  |  |  | 
10 | > 52 | CC(=O)O[C@@H](COc1c2occc2cc2ccc(=O)oc12)C(C)(C)O [Compound 10, (+)-heraclenol acetate] | > 10000 nM | 192 nM | > 10000 nM | > 10000 nM |  |  |  | > 100000 nM |  |  | 
11 |  | COc1cc2ccc(=O)oc2c2c1O[C@H](C(C)(C)O)C2 [Compound 11, Magydarin] | > 10000 nM | 151 nM | 623 nM | > 10000 nM | > 100000 nM |  |  |  |  |  | 
12 |  | COc1ccc2ccc(=O)oc2c1CC=C(C)C [Compound 12, osthol] | > 10000 nM | 2470 nM | 74.5 nM | > 10000 nM | 98000 nM |  |  |  |  |  | 
13 | > 5 | COc1ccc2ccc(=O)oc2c1C[C@@H]1OC1(C)C [Compound 13, meranzin] | > 10000 nM | 1890 nM | > 10000 nM | > 10000 nM |  |  |  |  |  |  | 
14 |  | COc1ccc2ccc(=O)oc2c1C[C@H](OC(C)=O)C(C)(C)O [Compound 14, 2′-acetoxy-3′-hydroxy-osthol] | > 10000 nM | > 10000 nM | 291 nM | > 10000 nM |  |  |  |  | > 34 |  | 
15 |  | CC(C)=CCC/C(C)=C/CC/C(C)=C/COc1ccc2ccc(=O)oc2c1 [Compound 15, umbelliprenin] | > 10000 nM | 266 nM | 5.8 nM | > 10000 nM | 75000 nM |  |  |  |  | > 1724 | increased by five folds
